The test deals with T1, uterine OT receptors (Rattus norvegicus, UniProt P70536).
T1 construct: a crude membrane preparation of uteri; from tissue; host or cells: uterus of DES-treated rats, crude membranes
T1 sequence (P70536 1-388): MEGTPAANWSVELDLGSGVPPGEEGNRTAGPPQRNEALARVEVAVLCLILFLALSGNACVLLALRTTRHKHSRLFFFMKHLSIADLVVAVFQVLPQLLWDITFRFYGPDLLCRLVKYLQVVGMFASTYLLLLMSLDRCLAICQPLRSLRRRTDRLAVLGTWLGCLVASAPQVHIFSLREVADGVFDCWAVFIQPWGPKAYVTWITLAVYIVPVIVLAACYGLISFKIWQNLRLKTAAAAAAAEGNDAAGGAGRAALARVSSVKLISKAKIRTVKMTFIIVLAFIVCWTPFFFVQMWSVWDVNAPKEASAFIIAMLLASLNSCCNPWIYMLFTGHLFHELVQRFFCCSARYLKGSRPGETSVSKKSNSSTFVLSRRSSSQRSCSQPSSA
In words: [3H]OT radioligand binding to uterine OT receptors, crude membrane preparation. Also noted: species or system rats. To be noted: saturation binding assays; uterus.

Broadly, the Kd is the equilibrium constant for the complex coming apart. [tyrosyl, 3,5-^3H]OT [[^3H]OT] registered an equilibrium dissociation constant (Kd) of 700 pM.

Source of the values: patent EP0444898A1, “Cyclic hexapeptide oxytocin antagonists” (MERCK & CO. INC., priority 1990, dated 1991).
